From patent US12702671B2, “Calcineurin inhibitors of the setron family for the treatment of hearing loss” (SENSORION, priority 2015, dated 2026)
Counter-ions that a name gives are not always drawn.

Experiments:
calcineurin = test: Calcineurin phosphatase activity in cerebellar granule neurons after 4 DIV (malachite green colorimetric assay, Test A); type: cell-based, Wistar rat
Description: According to Test A, phosphatase calcineurin activity is assessed in cerebellar granule neurons (CGNs) using a colorimetric assay kit based on quantification of the green complex formed between malachite green, molybdate and free phosphate released. CGNs are detached from plates, for example by scraping, rinsed in ice-cold tris buffer solution (TBS) and counted. About 10 million cells are lysed in 1 ml of the provided lysis buffer and centrifuged at 150,000×g at 4° C. for 45 min, and the supernatant may be stored at −70° C. until analysis. Prior to calcineurin activity assay, free phosphate and nucleotides are removed from cellular extract by gel filtration. To ensure the complete removal of phosphate, malachite green reagent may be added, which will turn the color green in presence of phosphate. A specific calcineurin substrate is added to phosphate-free cellular extracts and after appropriate incubation period, malachite green reagent is applied. The rapid green color formation from the reaction is measured, for example on a spectrophotometer. The developed color is proportional to the calcineurin phosphatase activity of samples. Absorbance values, read at 620 nm, may thus be transformed to percentage calcineurin activity relative to K25 control treatment (100%). Cerebellar granule cells were dissociated from the cerebellae of 7-day-old Wistar rat pups as described (Kramer et al. 2003, Mol Cell Neurosci 23:325-330). Briefly, the cerebellae were removed, rinsed in HBSS-BSA, minced, digested with 0.025% trypsin and incubated at 37° C. for 15 min. To stop the digestion, DMEM containing 10% fetal calf serum was added; then a single cell suspension was obtained through pipetting up and down the sedimented tissue. Following centrifugation, cells were counted using trypan blue exclusion test in a Burker chamber. This method is based on the ability of viable cells to exclude trypan blue due to their intact cell membranes, leaving them unstained while nonviable cells take up the dye. Cells at 3.2×10^5/cm^2 were seeded in DMEM Hepes modification supplemented with 10% fetal calf serum, 100 μg/ml pyruvate, and 100 μg/ml gentamicin on Polystyrene 12-well tissue culture plates (CELLSTAR) coated with poly-L-lysine. After 24 h, 10 μM cytosine arabinofuranoside was added to inhibit the growth of non-neuronal cells. All pharmacological interventions begun at this time in the culture medium containing 25 mM KCl (K25), which caused depolarization of granule cells and consequently activated gene expression machinery. Moreover, the viability of granule neurons was higher in this milieu and therefore provides the possibility to maintain cells for several days. Indeed, 25 mM KCl is required in the medium for CGN cultures to maintain adequate calcineurin activity and cell maturation and depolarization (Kramer et al., 2003, Mol Cell Neurosci 23:325-330; Vallano et al. 2006, Neuropharmacology 50: 651-660). Cultures received simple medium (K25 control) or medium containing a setron compound in HCl salt form (Tocris Bioscience, Bristol, UK) at concentrations of 10 nM, 100 nM or 1000 nM for 4 days in vitro (DIV). Phosphatase calcineurin activity was assessed in CGNs using a colorimetric assay kit based on quantification of the green complex formed between malachite green, molybdate and free phosphate released. CGNs were detached from plates by scraping, rinsed in ice-cold tris buffer solution (TBS) and counted. About 10 million cells are lysed in 1 ml of the provided lysis buffer and centrifuged at 150,000×g at 4° C. for 45 min, and the supernatant was stored at −70° C. until analysis. Prior to calcineurin activity assay, free phosphate and nucleotides were removed from cellular extract by gel filtration. To ensure the complete removal of phosphate, malachite green reagent was added, which will turn the color green in presence of phosphate. […]

[1] = test system: acoustic trauma induced hearing loss; test: Distortion product otoacoustic emissions (DPOAE) amplitudes after acoustic trauma; type: in vivo, Wistar rats
Description: All experiments were performed using 7 week old male Wistar rats (CERJ, Le Genest, France) in accordance with the French Ministry of Agriculture regulations and European Community Council Directive no. 86/609/EEC, OJL 358. The rats were fed a standard diet ad libitum and maintained on a 12 h light-dark cycle.
Auditory Brainstem Reponses (ABR) and Distortion Product Otoacoustic Emissions (DPOAE) were recording using a RZ6 Auditory Workstation (Tucker-Davis Technologies, Alachua, FL, USA) with animals deeply anesthetized using 90 mg/kg ketamine and 10 mg/kg xylazine and placed on a 35° C. recirculating heating pad inside a sound attenuating cubicle (Med Associates Inc., St. Albans, VT, USA) throughout the experiment.
DPOAEs were recorded and using ER10B+ Low Noise DPOAE microphone (Etymotic Research, Inc., Elk Grove Village, IL, USA) with acoustic stimuli delivered by two calibrated MF-1 speakers in closed-field configuration (Tucker-Davis Technologies, Alachua, FL, USA). DPOAEs were recorded at fixed stimulus levels (L1=L2=70 dB SPL), with an f2/f1 ratio of 1.2. Responses were recorded at 4, 8, 16, 24 and 32 kHz.
Animals were exposed to 121 dB octave band noise (8-16 kHz) for 2 h in groups of 4 rats, placed in individual compartments of a custom built circular cage placed on a 30 cm diameter platform rotating at 3 turns/minute (Aqila Innovation, Valbonne, France). The calibrated octave band noise generated by the RZ6 SigGen software was further amplified by a Crown D-75 amplifier in bridge mode (Crown Audio, Elkhart, IN, USA) and delivered by four Beyma CP16 compression tweeters (Acustica Beyma S. L., Moncada, Valencia, Spain) positioned 39 cm above the rotating platform, each 10 cm from the platform center.
Animals were treated by intraperitoneal injection daily for 14 days beginning immediately after acoustic trauma induction and subsequently repeated every 24 hours. The setron compounds granisetron HCl, ondansetron HCl, tropisetron HCl and azasetron HCl (Tocris Bioscience, Bristol, UK) were delivered dissolved in saline solution (1.6 mL/kg) while Tacrolimus (Selleck Chemicals, Houston, TX, USA) was dissolved in solution composed of 10% ethanol-100%/10% Kolliphor EL/1% Tween 80/79% saline (1.0 mL/kg). Placebo treated animals received injections of 1.6 mL/kg saline following the same treatment schedule.
Statistical analysis was performed using two-way ANOVA (Audiometry data: frequency and treatment group. Cochleograms: normalized distance from apex and treatment group) followed by Holm-Sidak post-hoc test for multiple comparisons. Results are given as mean±SEM and a p value less than or equal to 0.05 considered significant.
Baseline line audiometry (ABR and DPOAE measures) was performed for each animal 3 days before acoustic trauma was induced. Subsequently, audiometry measures were repeated 24 h and 14 days after acoustic trauma.
To quantify and compare the difference in treatment effects between groups while taking into account individual baseline and trauma variability, the hearing loss (ABR threshold shift & DPOAE amplitude loss) at D14 relative to baseline, as well as the functional recovery of hearing from 24 h to D14 (ABR threshold shift & DPOAE amplitude loss) were determined for all treatment groups.

[2] = i.p. daily for 14 days after acoustic trauma, same doses as E4

effect on calcineurin phosphatase activity (calcineurin; CGNs in K25 medium, 10, 100 or 1000 nM for 4 DIV, relative to K25 control (100%)): significantly inhibited
Compound: CN1C(=O)COc2c(C(=O)NC3CN4CCC3CC4)cc(Cl)cc21 (stereo not drawn) [azasetron HCl, N-(1-azabicyclo[2.2.2]octan-8-yl)-6-chloro-4-methyl-3-oxo-1,4-benzoxazine-8-carboxamide]
change of calcineurin inhibition with increasing concentration (calcineurin; CGNs, 4 DIV, 10-1000 nM): increased to different degree with increasing concentrations
concentrations at which calcineurin inhibition was significant (calcineurin; CGNs, 4 DIV, tested at 10, 100, 1000 nM, p<=0.05 vs K25 control): 1000 nM
reduction of DPOAE amplitudes loss compared to placebo treatment ([1]; day 14, i.p. daily for 14 days after acoustic trauma): ~ 60%
DPOAE amplitude loss from baseline to day 14 compared to placebo [1, 2]: significantly reduced loss of DPOAE amplitudes
recovery of DPOAE amplitudes from 24 h post trauma to day 14 compared to placebo [1, 2]: significantly improved recovery of DPOAE amplitudes
